The structures appear in SMILES notation. Values after ≈ are worked out from the molar mass of the structure shown. Counter-ions that a name gives are not always drawn. Like-named read-outs stand apart in the source and are kept apart here.

Experiment [1] deals with E. coli DRCC 018 ATCC 25922. Kind of experiment: In vitro MIC by broth microdilution. Format: cell-based. The note with it: Escherichia coli, ATCC25922. How it is done: (§1) Minimum Inhibition Concentrations (MICs) were determined by broth microdilution technique as per the guidelines prescribed in the fifth edition of Approved Standards NCCLS document M7-A5 Vol 20-No 2, 2000 Villinova, Pa. (Currently Clinical and Laboratory Standards Institute (CLSI)). Initial stock solution of the compound of formula (I) was prepared in DMSO. Subsequent two fold dilutions were carried out in sterile Cation adjusted Muller Hinton Broth (Difco) (MHB). Frozen cultures stocks were inoculated in 25 ml sterile MHB in 50 ml Erlyn Meyer flasks.
(§2) Composition of MHB is as follows: Beef Extract Powder—2.0 grams/litre, Acid Digest of Casein—17.5 grams/litre, Soluble Starch—1.5 grams/litre, Final pH 7.3±0.1
(§3) Flasks were incubated for 4 to 5 hours at 36±1° C. on a rotary shaker at 110 rpm. Inoculum was prepared by diluting the culture in sterile MHB to obtain a turbidity of 0.5 McFarland standard. This corresponds to 1−2×10^8 CFU/mL. The stock was further diluted to achieve a final inoculum density of 5×10^4 to 1×10^5 CFU/well. The plates were incubated 18 to 20 hours at 37° C.

Experiment [2] deals with E. faecalis DRCC 034 VSE ATCC 29212. The experiment is described as follows: In vitro MIC by broth microdilution. It counts as cell-based. The note with it: Enterococcus faecalis, ATCC29212. As to the method: as §1, §2, §3
A general note: In broth dilution the organism is exposed to a series of concentrations in liquid medium.

Experiment [3] deals with E. faecalis DRCC 153 VRE NCTC 12201. The experiment is described as follows: In vitro MIC by broth microdilution. Format: cell-based. The note with it: Enterococcus faecalis. As to the method: as §1, §2, §3
For experiment [4], the system named is E. faecium DRCC 154 VRE NCTC 12202. Kind of experiment: In vitro MIC by broth microdilution. It counts as cell-based. The note with it: Enterococcus faecium. How it is done:
as §1, §2, §3

Experiment [5] relates to K. pn DRCC 575 ATCC 700603. The experiment is described as follows: In vitro MIC by broth microdilution. Format: cell-based. To be noted: Klebsiella pneumoniae, ATCC700603. As to the method: as §1, §2, §3
The subject of experiment [6] is P. aeru DRCC 024 ATCC 27853. Kind of experiment: In vitro MIC by broth microdilution. Format: cell-based. The note with it: Pseudomonas aeruginosa, ATCC27853. How it is done:
as §1, §2, §3

Experiment [7] has as its system S. aureus DRCC 019 MRSA ATCC 33591. The experiment is described as follows: In vitro MIC by broth microdilution. Format: cell-based. To be noted: Staphylococcus aureus. How it is done: as §1, §2, §3
Experiment [8] has as its system S. aureus DRCC 035 MSSA ATCC 29213. The experiment is described as follows: In vitro MIC by broth microdilution. To be noted: Staphylococcus aureus. It counts as cell-based. How it is done:
as §1, §2, §3

In another experiment the test system is E faecalis DRCC 543. The experiment is described as follows: ED50 in murine systemic infection model. Format: in vivo. To be noted: Enterococcus faecalis, 120 h, Swiss Albino Mice, survival 5 days. As to the method: (§4) Animals: Specific pathogen free outbred, female and male Swiss Albino Mice, 4-6 weeks old, weighing 25±2 grams.
(§5) Inoculum Preparation: • Systemic infection model is performed based on LD50 of an organism. 10-1000×LD50 or 1-5 MLD (minimum lethal dose) is used as an infecting inoculum. • Organisms are sub-cultured on blood agar plates and incubated at 35-37° C. for 18-24 hours. Inoculum is prepared in 0.9% normal saline and optical density adjusted at 560 nm to yield an inoculum density of 10^5 to 10^9CFU/mL based on the test organism. • Adjusted inoculum is further diluted 1:1 in mucin solution to achieve a final mucin concentration of 5-7.5% (wt/vol). • Log CFUs of inoculum is determined by serially diluting the inoculum in normal saline and plating on suitable agar plates. Plates are incubated at 35-37° C. for 18-24 hours and counts determined.
(§6) Infection: • Animals are infected with 0.5 ml of inoculum by intra-peritoneal route. • Two groups of mice left untreated, serve as untreated control.
(§7) Treatment: • For single dose, compound of formula (I) is administered at 0 to 3 hour post-infection by p.o./s.c./i.v. route. • For b.i.d., compound of formula (I) administered at 0 to 3 hour post-infection for first dose and at 4 to 6 hours post-infection for second dose by p.o./s.c./i.v. route.
(§8) End point: Survival/death in each treated and untreated groups are monitored for 5 days (7 days for S. pneumoniae). The ED50 values are determined by probit analysis.

Another experiment concerns E. Coli ATCC 25992. Kind of experiment: ED50 in murine systemic infection model. It counts as in vivo. The note with it: Escherichia coli, 120 h, Swiss Albino Mice, survival 5 days. As to the method: as §4, §5, §6, §7, §8
A further experiment deals with MRSA DRCC 446. Kind of experiment: ED50 in murine systemic infection model. It counts as in vivo. To be noted: Staphylococcus aureus, 120 h, Swiss Albino Mice, survival 5 days. How it is done:
as §4, §5, §6, §7, §8

The test system of experiment [9] is S. aureus DRCC 035 (ATCC 29213). Kind of experiment: ED50 in murine systemic infection model. Format: in vivo. To be noted: Staphylococcus aureus, 120 h, Swiss Albino Mice, survival 5 days. As to the method:
as §4, §5, §6, §7, §8

The test system of the next experiment is S. pneumoniae ATCC 49619. Kind of experiment: ED50 in murine systemic infection model. Format: in vivo. To be noted: Streptococcus pneumoniae, 168 h, Swiss Albino Mice, survival 7 days. How it is done:
as §4, §5, §6, §7, §8

Setting [10] is: E. coli DRCC 018, ATCC 25922, read-out: MIC.
The mark [11] stands for this setting: E. faecalis DRCC 034, VSE, ATCC 29212, read-out: MIC.
The mark [12] stands for this setting: E. faecalis DRCC 153, VRE, NCTC 12201, read-out: MIC.
[13] abbreviates: E. faecium DRCC 154, VRE, NCTC 12202, read-out: MIC.
Where [14] appears, read: K. pn DRCC 575, ATCC 700603, read-out: MIC.
The mark [15] stands for this setting: P. aeru DRCC 024, ATCC 27853, read-out: MIC.
[16] abbreviates: S. aureus DRCC 019, MRSA, ATCC 33591, read-out: MIC.
Where [17] appears, read: S. aureus DRCC 035, MSSA, ATCC 29213, read-out: MIC.

The MIC is the least concentration at which growth counts as inhibited. Take `CCCN1CCC[C@H]1C(=O)Nc1cc(N(C)C)c2c(c1O)C(=O)C1=C(O)[C@]3(O)C(=O)C(C(N)=O)=C(O)[C@@H](N(C)C)[C@@H]3C[C@@H]1C2` [Example 4, (S)—N-((5aR,6aS,7S,10aS)-9-carbamoyl-4,7-bis(dimethylamino)-1,8,10a,11-tetrahydroxy-10,12-dioxo-5,5a,6,6a,7,10,10a,12-octahydrotetracen-2-yl)-1-propylpyrrolidine-2-carboxamide]: the MIC is 2 µg/mL (≈ 3.27 µM) in experiment [1] (setting [10]); 0.25 µg/mL (≈ 0.409 µM) in experiment [2] (setting [11]); 0.5 µg/mL (≈ 0.817 µM) in [3] (setting [12]); 0.12 µg/mL (≈ 0.196 µM) in experiment [4] (setting [13]); > 32 µg/mL in experiment [5] (setting [14]); > 32 µg/mL in experiment [6] (setting [15]). Besides, the MIC in experiment [7] (setting [16]) and in [8] (setting [17]) was 1 µg/mL (≈ 1.63 µM) in each case.

Broadly, the ED50 is the dose that gives a 50% effect, or the effect in half of the subjects. Higher therefore signals weaker potency. Turning to `CN(C)c1cc(NC(=O)[C@@H]2CCCN2C)c(O)c2c1C[C@H]1C[C@H]3[C@H](N(C)C)C(O)=C(C(N)=O)C(=O)[C@@]3(O)C(O)=C1C2=O` [Example 2, (S)—N-((5aR,6aS,7S,10aS)-9-carbamoyl-4,7-bis(dimethylamino)-1,8,10a,11-tetrahydroxy-10,12-dioxo-5,5a,6,6a,7,10,10a,12-octahydrotetracen-2-yl)-1-methylpyrrolidine-2-carboxamide], the MIC was determined as 0.12 µg/mL (≈ 0.206 µM) in experiment [1] (setting [10]); 0.03 µg/mL (≈ 0.0514 µM) in [2] (setting [11]); 0.03 µg/mL (≈ 0.0514 µM) in [3] (setting [12]); 0.01 µg/mL (≈ 0.0171 µM) in experiment [4] (setting [13]); 8 µg/mL (≈ 13.7 µM) in experiment [5] (setting [14]); 16 µg/mL (≈ 27.4 µM) in [6] (setting [15]). Also, the results for the MIC in experiment [7] (setting [16]) and in experiment [8] (setting [17]) were 0.25 µg/mL (≈ 0.428 µM) and 0.12 µg/mL (≈ 0.206 µM), respectively. For the same compound, the median effective dose (ED50) was found to be 0.28 mg/kg with E faecalis DRCC 543 (DRCC543, iv, E faecalis DRCC 543, i.v.-q.d.); 2.53 mg/kg in the experiment on E faecalis DRCC 543 (DRCC543, po, E faecalis DRCC 543, p.o.-b.i.d.); 0.5 mg/kg in the experiment with E. Coli ATCC 25992 (ATCC25992, iv, E. Coli ATCC 25992, i.v.-q.d.); 12.6 mg/kg in the experiment with E. Coli ATCC 25992 (ATCC25992, po, E. Coli ATCC 25992, p.o.-b.i.d.); 0.77 mg/kg with MRSA DRCC 446 (iv, MRSA DRCC 446, i.v.-q.d.); 7.3 mg/kg with MRSA DRCC 446 (po, MRSA DRCC 446, p.o.-b.i.d.). Also, the 50% effective dose (ED50) was determined as 0.6 mg/kg in experiment [9] (ATCC29213, iv, i.v.-q.d.); 5.5 mg/kg in [9] (ATCC29213, po, p.o.-b.i.d.); 0.16 mg/kg with S. pneumoniae ATCC 49619 (ATCC49619, iv, S. pneumoniae ATCC 49619, i.v.-q.d.); 6.2 mg/kg with S. pneumoniae ATCC 49619 (ATCC49619, po, S. pneumoniae ATCC 49619, p.o.-b.i.d.).

For `CCN1CCC[C@H]1C(=O)Nc1cc(N(C)C)c2c(c1O)C(=O)C1=C(O)[C@]3(O)C(=O)C(C(N)=O)=C(O)[C@@H](N(C)C)[C@@H]3C[C@@H]1C2` [Example 3, (S)—N-((5aR,6aS,7S,10aS)-9-carbamoyl-4,7-bis(dimethylamino)-1,8,10a,11-tetrahydroxy-10,12-dioxo-5,5a,6,6a,7,10,10a,12-octahydrotetracen-2-yl)-1-ethylpyrrolidine-2-carboxamide], the minimal inhibitory concentration (MIC) is 0.5 µg/mL (≈ 0.837 µM) in [1] (setting [10]); 0.12 µg/mL (≈ 0.201 µM) in experiment [2] (setting [11]); 0.12 µg/mL (≈ 0.201 µM) in experiment [3] (setting [12]); 0.06 µg/mL (≈ 0.1 µM) in experiment [4] (setting [13]); 16 µg/mL (≈ 26.8 µM) in experiment [5] (setting [14]); > 32 µg/mL in experiment [6] (setting [15]). Moreover, the minimum inhibitory concentration (MIC) in [7] (setting [16]) and in experiment [8] (setting [17]) was 0.5 µg/mL (≈ 0.837 µM) throughout.

Regarding `CC(C)CN1CCC[C@H]1C(=O)Nc1cc(N(C)C)c2c(c1O)C(=O)C1=C(O)[C@]3(O)C(=O)C(C(N)=O)=C(O)[C@@H](N(C)C)[C@@H]3C[C@@H]1C2` [Example 7, (S)—N-((5aR,6aS,7S,10aS)-9-carbamoyl-4,7-bis(dimethylamino)-1,8,10a,11-tetrahydroxy-10,12-dioxo-5,5a,6,6a,7,10,10a,12-octahydrotetracen-2-yl)-1-isobutylpyrrolidine-2-carboxamide dihydrochloride], the minimal inhibitory concentration (MIC) in [1] worked out at 4 µg/mL; in experiment [2], 0.5 µg/mL; in experiment [3] it was 1 µg/mL; in experiment [4] it was 0.5 µg/mL; in experiment [5], 128 µg/mL; in experiment [6] it was 64 µg/mL. For the same compound, the MIC in [7] and in experiment [8] was 2 µg/mL throughout.

The values above are taken from patent publication US7939513B2, “Tetracycline derivatives as antibacterial agents” (Dr. Reddy's Laboratories Limited, priority 2007, dated 2011).
